System: γ-glutamyl carboxylation reaction (human Gas6 in Gas6-HEK293 cells)
Assay: Inhibitory action on γ-glutamyl carboxylation reaction (secreted γ-glutamyl carboxylated Gas6 by ELISA)
Type: cell-based
Conditions: vitamin K2 100 nM, exposure 18 to 20 hours, ELISA absorbance at 620 nm, read-out: IC50 (50% inhibitory concentration for the γ-glutamyl carboxylation reaction)
Experimental: Measurement of Inhibitory Action on γ-Glutamyl Carboxylation Reaction
Cells were used that expressed Gas6 excreted outside the cells when subjected to γ-glutamyl carboxylation, and inhibitory action on γ-glutamyl carboxylation reaction was assessed by measuring the secreted amount of extracellular Gas6 by ELISA method.
(A) Preparation for Assay Plate Containing Solid-Phase Anti-Human Gas6 Antibody
Goat anti-human Gas6 antibody (R&D Systems, Inc.) was diluted to 1 μg/ml with Dulbecco's phosphate-buffered saline, and 40 μl aliquots thereof were dispensed into each well of a 384-well microplate. After immobilizing the antibody to the solid phase by allowing it to stand at 4° C. overnight or at room temperature for 2 hours or more, each well was washed three times with wash buffer (10 mM Tris-HCl pH 7.4, 150 mM sodium chloride, 0.05% Tween20). After removing the supernatant, 80 μl aliquots of a 1% aqueous solution of Block Ace (Dainippon Sumitomo Pharma) were dispensed into each well and allowed to react at room temperature for 1 hour or more.
(B) Exposure of Test Compounds to Cells Stably Expressing Human Gas6
Cells that stably express human Gas6 (Gas6-HEK293), which were prepared by inserting human Gas6 gene (inserted between SalI and NotI within multiple cloning sites of pCIneo expression vector) into HEK293 cells, were grown and sub-cultured using Dulbecco's modified Eagle's medium (DMEM) containing 10% fetal calf serum (FCS). On the day before ELISA measurement, the Gas6-HEK293 cells were detached with trypsin-EDTA, dispersed in DMEM containing 10% FCS, and disseminated into each well of a 384-well, collagen type I-coated plate (Becton-Dickinson) in 30 μl aliquots containing 1.0×10^4 cells each, followed by culturing for 3 to 4 hours at 5% CO2 and 37° C. 30 μl aliquots of DMEM containing test compound solutions, prepared at various concentrations by dissolving in DMSO, and vitamin K2 at 0.1% and 100 nM, respectively (indicating final concentrations in both cases) were added to each well followed by additionally culturing for 18 to 20 hours.
(C) Quantification of γ-Glutamyl Carboxylated Gas6 by ELISA and Calculation of 50% Inhibitory Concentrations of γ-Glutamyl Carboxylation Reaction
After removing the 1% Block Ace aqueous solution from the preliminarily prepared assay plates containing solid phase anti-human Gas6 antibody, the culture supernatant of Gas6-HEK293 cells exposed to the test compounds was collected and 40 μl aliquots were dispensed into each well followed by allowing to react at room temperature for 2 hours (Step 1). The culture supernatant was removed and each well was washed three times with wash buffer. Thereafter, the same washing procedure was carried out between Steps 2 and 3 and Steps 3 and 4. Subsequently, 40 μl aliquots of mouse anti-human […] antibody (American Diagnostica inc.), adjusted to 0.5 μg/ml with immunoreaction buffer (100 mM Tris-HCl pH 7.4, 0.05% Tween20, 0.1% Block Ace), were dispensed into each well and allowed to react at room temperature for 1 hour (Step 2). Next, 40 μl aliquots of alkaline phosphatase-conjugated anti-mouse IgG antibody adjusted to 1.0 μg/ml with immunoreaction buffer were dispensed into each well and allowed to react at room temperature for 1 hour (Step 3). 40 μl aliquots of BluePhos Microwell (KPL) were dispensed into each well, and after incubating at room temperature for 10 minutes (Step 4), 20 μl aliquots of 5% EDTA were added to each well to stop the color development reaction, followed by measurement of absorbance at 620 nm (Step 5). […]

Row | Structure (SMILES) | IC50 [nM]
1 | Cc1nc2ccc(OC3CCN(C(=O)[C@@H](NC(=O)c4nc5ccccc5nc4O)C(C)C)CC3)cc2s1 [Example 91, 3-Hydroxy-N-[(1S)-2-methyl-1-({4-[(2-methyl-1,3-benzothiazol-6-yl)oxy]piperidin-1-yl}carbonyl)propyl]quinoxaline-2-carboxamide] | 3.8
2 | CC(C)[C@H](NC(=O)c1nc2ccccc2nc1O)C(=O)N1CCC(C(=O)c2ccc(F)cc2)CC1 [Example 61, N-[(1S)-1-{[4-(4-Fluorobenzoyl)piperidin-1-yl]carbonyl}-2-methylpropyl]-3-hydroxyquinoxaline-2-carboxamide] | 5.1
3 | COc1ccc(OC2CCN(C(=O)[C@@H](NC(=O)c3nc4ccccc4nc3O)C(C)C)CC2)cn1 [Example 86, 3-Hydroxy-N-[(1S)-1-({4-[(6-methoxypyridin-3-yl)oxy]piperidin-1-yl}carbonyl)-2-methylpropyl]quinoxaline-2-carboxamide] | 0.7
4 | CC(C)[C@H](NC(=O)c1nc2ccccc2nc1O)C(=O)N1CCC(C(=O)c2ccc(F)cc2O)CC1 [Example 67, N-[(1S)-1-{[4-(4-Fluoro-2-hydroxybenzoyl)piperidin-1-yl]carbonyl}-2-methylpropyl]-3-hydroxyquinoxaline-2-carboxamide] | 0.75
5 | C[C@H](NC(=O)c1nc2ccccc2nc1O)C(=O)N1CCC(Oc2ccc(Cl)cc2)CC1 [Example 1, N-{(1S)-2-[4-(4-Chlorophenoxy)piperidin-1-yl]-1-methyl-2-oxoethyl}-3-hydroxyquinoxaline-2-carboxamide] | 8.4
6 | C[C@H](NC(=O)c1nc2ccccc2nc1O)C(=O)N1CCC(Oc2ccc(F)cc2)CC1 [Example 2, N-{(1S)-2-[4-(4-Fluorophenoxy)piperidin-1-yl]-1-methyl-2-oxoethyl}-3-hydroxyquinoxaline-2-carboxamide] | 6.6
7 | CC[C@H](NC(=O)c1nc2ccccc2nc1O)C(=O)N1CCC(Oc2ccc(F)cn2)CC1 [Example 12, N-[(1S)-1-({4-[(5-Fluoropyridin-2-yl)oxy]piperidin-1-yl}carbonyl)propyl]-3-hydroxyquinoxaline-2-carboxamide] | 4.2
8 | CC(C)[C@H](NC(=O)c1nc2ccccc2nc1O)C(=O)N1CCC(Oc2ncc(-c3ccccc3)cn2)CC1 [Example 80, 3-Hydroxy-N-[(1S)-2-methyl-1-({4-[(5-phenylpyrimidin-2-yl)oxy]piperidin-1-yl}carbonyl)propyl]quinoxaline-2-carboxamide] | 7.1
9 | CC(C)[C@H](NC(=O)c1nc2ccccc2nc1O)C(=O)N1CCC(Oc2ccc(Cl)cc2)CC1 [Example 15, N-[(1S)-1-{[4-(4-Chlorophenoxy)piperidin-1-yl]carbonyl}-2-methylpropyl]-3-hydroxyquinoxaline-2-carboxamide] | 18
10 | CC(C)[C@H](NC(=O)c1nc2ccccc2nc1O)C(=O)N1CCC(Oc2ncc(Br)cn2)C(C)(C)C1 (stereo partly drawn) [Example 82, N-[(1S)-1-({4-[(5-Bromopyrimidin-2-yl)oxy]-3,3-dimethylpiperidin-1-yl}carbonyl)-2-methylpropyl]-3-hydroxyquinoxaline-2-carboxamide] | 4.6
11 | CC[C@H](NC(=O)c1nc2ccccc2nc1O)C(=O)N1CCC(Oc2ccc(OC(F)(F)F)cc2)CC1 [Example 10, 3-Hydroxy-N-[(1S)-1-({4-[4-(trifluoromethoxy)phenoxy]piperidin-1-yl}carbonyl)propyl]quinoxaline-2-carboxamide] | < 0.6
12 | CC(C)(O)[C@H](NC(=O)c1nc2ccccc2nc1O)C(=O)N1CCC(Oc2ccc(F)cc2)CC1 [Example 69, N-[(1S)-1-{[4-(4-Fluorophenoxy)piperidin-1-yl]carbonyl}-2-hydroxy-2-methylpropyl]-3-hydroxyquinoxaline-2-carboxamide] | 3.4
13 | CC(C)[C@H](NC(=O)c1nc2ccccc2nc1O)C(=O)N1CCC(Oc2ccc(C(F)(F)F)cc2)CC1 [Example 62, 3-Hydroxy-N-[(1S)-2-methyl-1-({4-[4-(trifluoromethyl)phenoxy]piperidin-1-yl}carbonyl)propyl]quinoxaline-2-carboxamide] | 3.6
14 | CC(C)[C@H](NC(=O)c1nc2ccccc2nc1O)C(=O)N1CCC(Oc2ccc(C(F)(F)F)cn2)CC1 [Example 36, 3-Hydroxy-N-{(1S)-2-methyl-1-[(4-{[5-(trifluoromethyl)pyridin-2-yl]oxy}piperidin-1-yl)carbonyl]propyl}quinoxaline-2-carboxamide] | 1.8
15 | CC(C)[C@H](NC(=O)c1nc2ccccc2nc1O)C(=O)N1CCC(Oc2ccc(C#N)cc2)CC1 [Example 19, N-[(1S)-1-{[4-(4-Cyanophenoxy)piperidin-1-yl]carbonyl}-2-methylpropyl]-3-hydroxyquinoxaline-2-carboxamide] | 4.7
16 | CC(C)[C@H](NC(=O)c1nc2ccccc2nc1O)C(=O)N1CCC(Oc2ccc(Cl)cn2)CC1 [Example 29, N-[(1S)-1-({4-[(5-Chloropyridin-2-yl)oxy]piperidin-1-yl}carbonyl)-2-methylpropyl]-3-hydroxyquinoxaline-2-carboxamide] | 7.2
17 | CC(C)[C@H](NC(=O)c1nc2ccccc2nc1O)C(=O)N1CCC(Oc2ccc(C(F)(F)F)nc2)CC1 [Example 84, 3-Hydroxy-N-{(1S)-2-methyl-1-[(4-{[6-(trifluoromethyl)pyridin-3-yl]oxy}piperidin-1-yl)carbonyl]propyl}quinoxaline-2-carboxamide] | 5.5
18 | CC(C)[C@H](NC(=O)c1nc2ccccc2nc1O)C(=O)N1CCC(Oc2ncc(F)cc2F)CC1 [Example 49, N-[(1S)-1-({4-[(3,5-Difluoropyridin-2-yl)oxy]piperidin-1-yl]carbonyl)-2-methylpropyl}-3-hydroxyquinoxaline-2-carboxamide] | 4.3
19 | CC(C)[C@H](NC(=O)c1nc2ccccc2nc1O)C(=O)N1CCC(Oc2ncc(C(F)(F)F)cn2)CC1 [Example 94, 3-Hydroxy-N-{(1S)-2-methyl-1-[(4-{[5-(trifluoromethyl)pyrimidin-2-yl]oxy}piperidin-1-yl)carbonyl]propyl}quinoxaline-2-carboxamide] | 2.7
20 | CC[C@H](NC(=O)c1nc2ccccc2nc1O)C(=O)N1CCC(Oc2ccc(F)cc2F)CC1 [Example 9, N-[(1S)-1-{[4-(2,4-Difluorophenoxy)piperidin-1-yl]carbonyl}propyl]-3-hydroxyquinoxaline-2-carboxamide] | < 0.6
21 | CC(C)[C@H](NC(=O)c1nc2ccccc2nc1O)C(=O)N1CCC(Oc2cnc(-c3ccccc3)nc2)CC1 [Example 81, 3-Hydroxy-N-[(1S)-2-methyl-1-({4-[(2-phenylpyrimidin-5-yl)oxy]piperidin-1-yl}carbonyl)propyl]quinoxaline-2-carboxamide] | 4.6
22 | C[C@H](NC(=O)c1nc2ccccc2nc1O)C(=O)N1CCC(Oc2ccc(F)cc2F)CC1 [Example 3, N-{(1S)-2-[4-(2,4-Difluorophenoxy)piperidin-1-yl]-1-methyl-2-oxoethyl}-3-hydroxyquinoxaline-2-carboxamide] | 3.5
23 | CC[C@H](NC(=O)c1nc2ccccc2nc1O)C(=O)N1CCC(Oc2ccc(C#N)cc2)CC1 [Example 11, N-[(1S)-1-{[4-(4-Cyanophenoxy)piperidin-1-yl]carbonyl}propyl]-3-hydroxyquinoxaline-2-carboxamide] | 6.5
24 | CC[C@H](NC(=O)c1nc2ccccc2nc1O)C(=O)N1CCC(Oc2ccc(F)cc2)CC1 [Example 8, N-[(1S)-1-{[4-(4-Fluorophenoxy)piperidin-1-yl]carbonyl}propyl]-3-hydroxyquinoxaline-2-carboxamide] | 1.8
25 | CC(C)[C@H](NC(=O)c1nc2ccccc2nc1O)C(=O)N1CCC(Oc2ccc(F)cn2)CC1 [Example 37, N-[(1S)-1-({4-[(5-Fluoropyridin-2-yl)oxy]piperidin-1-yl}carbonyl)-2-methylpropyl]-3-hydroxyquinoxaline-2-carboxamide] | 5.4
